{
  "source": "patent US20260248799A1",
  "about": "“COMBINATIONS OF RETINALDEHYDE DEHYDROGENASE 1 (RALDH1) INHIBITORS AND IMMUNOSTIMULATORS AND METHODS USING SAME” (The Trustees of the University of Pennsylvania, priority 2023, published 2026)",
  "key": {"[1]": {"assay": "Pharmacokinetics IV and PO in CD-1 mice, plasma", "type": "in vivo", "details": "mouse plasma", "from_the_text": "The PK studies were done at NIH or a commercial CRO—Pharmacon using their in-house standard protocol. […] For C99, IV and PO, performed at NIH using CD-1 mice; formulation: 20% HPbCD in saline."}, "[2]": {"assay": "IP pharmacokinetics and tissue distribution of C-86 in C57BL/6J mice", "type": "in vivo, mouse", "details": "for AUC(0-inf) / Cmax: male, C57BL/6J, mouse, mice, IP"}, "[3]": {"tested_on": "murine HCC cell line (Hepa1-6)", "assay": "AldeRed assay in Hepa1-6 cells", "type": "cell-based, mouse", "details": "murine HCC cell line Hepa1-6, 24 hours", "protocol": "Cultures of tumor cells or primary monocyte-derived cells were treated with C86, C91, C99, BMS 493 (Tocris, 3509) or Win 18446 (Tocris, 4736) at a time and concentration indicated in corresponding figure legends.\nThe AldeRed assay (EMD Millipore) was performed according to manufacturer's instructions to identify cells with ALDH activity. In brief, single-cell suspensions of Huh7, Huh1, SNU449, SNU398, HEP3B, PLC, Hepa 1-6, Hep55, and AL458A cultured cells or single-cell suspension generated from enzymatic digestion of tumors generated from transplantation of these cells in mice (as indicated in figure legends) were incubated with a fluorescent and non-toxic ALDH substrate (AldeRed 588-A); the fluorescent product accumulates in cells proportional to their ALDH activity. The amount of fluorescence produced is measured by flow cytometry. The ALDH inhibitor diethylaminobenzaldehyde (DEAB, provided with the AldeRed assay kit) was used as a negative control for background fluorescence assessment."}, "[4]": {"tested_on": "monocytes in Huh7 tumors", "assay": "Differentiation of human monocytes injected into Huh7 tumors in NU/J mice", "type": "in vivo, mouse", "details": "10 mg/kg, i.p, daily", "from_the_text": "FIGS. 22A-22E: RALDH1 inhibition blocks RA-mediated effects of HCC on monocyte differentiation. FIGS. 22A-22B: Circulating primary human monocytes from donors (FIG. 22A) or murine monocytes from bone marrow (FIG. 22B) were cocultured with SNU398 (Human HCC) cells or treated with SNU398-conditioned media (CM) in a DC differentiation system (GM-CSF and IL-4). Two-color histograms show the frequencies of DCs (CD11c^+CD1a^+ for human and CD11c^+MHCII^+ for mouse). The presence of SNU398 or its CM suppressed DC differentiation, which is reversed when SNU398 cells are treated with C86. Three or more independent experiments were performed with at least three replicates per experimental group. Unpaired t test, two-tailed. FIG. 22C: Huh7 (human HCC) cells were subcutaneously injected into flanks of NU/J mice. 12 days later the tumor size was about 50 mm^3 and C86 or vehicle treatment (10 mg/kg, i.p, daily injection) was started. […] The frequencies of the host (murine) DCs (CD45^+F4/80^−CD11C^+MHCII-high) and macrophages (CD45^+F4/80^+) are quantified in a bar graph. […] Shown are the representative FCM plot (histogram) and DC quantification (bar graph). […]\nMonocytes were isolated (as described above) from mouse bone marrow of C57BL/6 mice and counted. […] Tumors were harvested at specified time points and analyzed by flow cytometry. […]"}, "[5]": {"tested_on": "ATPase, Na+/K+, Heart, Pig", "assay": "Safetyscreen: ATPase, Na+/K+", "type": "biochemical", "details": "10 μM"}, "[6]": {"target": "T1, Protein Tyrosine Kinase, LCK (Homo sapiens, UniProt P06239)", "T1 construct": "Eurofins Cerep Panlabs (contract panel)", "T1 sequence (P06239 whole entry)": "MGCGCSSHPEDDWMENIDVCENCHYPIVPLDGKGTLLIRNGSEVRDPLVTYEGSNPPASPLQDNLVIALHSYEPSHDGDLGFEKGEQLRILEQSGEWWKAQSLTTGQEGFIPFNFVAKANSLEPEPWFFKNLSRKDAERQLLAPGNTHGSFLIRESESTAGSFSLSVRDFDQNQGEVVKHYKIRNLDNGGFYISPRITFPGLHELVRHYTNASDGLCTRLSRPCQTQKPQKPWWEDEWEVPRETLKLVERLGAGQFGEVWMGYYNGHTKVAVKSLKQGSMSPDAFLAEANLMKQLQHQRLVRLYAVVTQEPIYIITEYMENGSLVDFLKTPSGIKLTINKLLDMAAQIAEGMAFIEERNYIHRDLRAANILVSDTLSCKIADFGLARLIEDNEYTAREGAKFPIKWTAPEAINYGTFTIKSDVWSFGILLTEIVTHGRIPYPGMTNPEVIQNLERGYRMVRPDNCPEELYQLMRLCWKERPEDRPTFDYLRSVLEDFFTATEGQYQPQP", "assay": "Safetyscreen: LCK", "type": "biochemical", "details": "read-out: % Inh. Protein Tyrosine Kinase, LCK"}, "[7]": {"target": "T2, Adenosine A1 (Homo sapiens, UniProt P30542)", "T2 construct": "Eurofins Cerep Panlabs (contract panel)", "T2 sequence (P30542 whole entry)": "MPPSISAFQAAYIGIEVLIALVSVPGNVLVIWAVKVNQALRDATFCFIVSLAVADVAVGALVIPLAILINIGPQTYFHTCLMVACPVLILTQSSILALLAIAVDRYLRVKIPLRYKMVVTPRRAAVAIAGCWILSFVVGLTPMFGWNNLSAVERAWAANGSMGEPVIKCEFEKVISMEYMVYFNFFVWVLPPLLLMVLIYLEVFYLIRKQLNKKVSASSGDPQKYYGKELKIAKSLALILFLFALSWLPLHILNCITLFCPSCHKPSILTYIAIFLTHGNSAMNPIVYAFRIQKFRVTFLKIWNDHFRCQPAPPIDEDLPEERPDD", "assay": "Safetyscreen: Adenosine A1", "type": "binding", "details": "read-out: % Inh. Adenosine A1"}, "[8]": {"target": "T3, Adrenergic α1D (Homo sapiens, UniProt P25100)", "T3 construct": "Eurofins Cerep Panlabs (contract panel)", "T3 sequence (P25100 whole entry)": "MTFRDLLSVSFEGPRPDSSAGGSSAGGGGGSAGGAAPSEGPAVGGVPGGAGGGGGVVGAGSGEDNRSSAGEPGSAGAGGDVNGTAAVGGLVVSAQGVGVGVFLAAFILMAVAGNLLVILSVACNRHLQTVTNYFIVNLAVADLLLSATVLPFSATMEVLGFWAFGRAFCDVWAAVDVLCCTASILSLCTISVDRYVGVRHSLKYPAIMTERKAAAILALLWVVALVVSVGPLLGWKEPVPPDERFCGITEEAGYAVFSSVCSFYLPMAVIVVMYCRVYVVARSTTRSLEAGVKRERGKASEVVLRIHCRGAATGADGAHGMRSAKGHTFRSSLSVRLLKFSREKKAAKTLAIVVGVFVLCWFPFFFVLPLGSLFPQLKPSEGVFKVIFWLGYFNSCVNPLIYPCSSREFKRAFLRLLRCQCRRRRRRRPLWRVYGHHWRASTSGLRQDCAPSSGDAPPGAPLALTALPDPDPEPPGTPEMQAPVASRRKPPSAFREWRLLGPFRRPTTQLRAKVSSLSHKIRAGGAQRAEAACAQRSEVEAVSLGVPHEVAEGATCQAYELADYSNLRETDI", "assay": "Safetyscreen: Adrenergic α1D", "type": "binding", "details": "read-out: % Inh. Adrenergic α1D"}, "[9]": {"target": "T4, Adrenergic α2B (Homo sapiens, UniProt P18089)", "T4 construct": "Eurofins Cerep Panlabs (contract panel)", "T4 sequence (P18089 whole entry)": "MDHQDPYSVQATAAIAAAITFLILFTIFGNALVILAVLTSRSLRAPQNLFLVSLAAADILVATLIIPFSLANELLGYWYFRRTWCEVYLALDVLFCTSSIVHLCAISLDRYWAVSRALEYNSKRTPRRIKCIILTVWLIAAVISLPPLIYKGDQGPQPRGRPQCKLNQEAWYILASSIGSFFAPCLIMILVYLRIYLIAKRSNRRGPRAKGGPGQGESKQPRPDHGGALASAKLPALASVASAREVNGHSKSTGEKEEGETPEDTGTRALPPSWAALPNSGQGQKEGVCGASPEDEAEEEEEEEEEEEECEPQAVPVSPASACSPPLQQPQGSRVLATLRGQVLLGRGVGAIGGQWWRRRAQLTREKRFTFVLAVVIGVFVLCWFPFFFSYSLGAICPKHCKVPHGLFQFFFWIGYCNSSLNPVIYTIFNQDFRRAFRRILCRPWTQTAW", "assay": "Safetyscreen: Adrenergic α2B", "type": "binding", "details": "read-out: % Inh. Adrenergic α2B"}, "[10]": {"tested_on": "Glutamate, NMDA, Glycine", "assay": "Safetyscreen: NMDA, Glycine", "type": "binding, rat", "details": "10 μM"}, "[11]": {"target": "T5, Muscarinic M4 (Homo sapiens, UniProt P08173)", "T5 construct": "Eurofins Cereps Panlabs (contract panel)", "T5 sequence (P08173 whole entry)": "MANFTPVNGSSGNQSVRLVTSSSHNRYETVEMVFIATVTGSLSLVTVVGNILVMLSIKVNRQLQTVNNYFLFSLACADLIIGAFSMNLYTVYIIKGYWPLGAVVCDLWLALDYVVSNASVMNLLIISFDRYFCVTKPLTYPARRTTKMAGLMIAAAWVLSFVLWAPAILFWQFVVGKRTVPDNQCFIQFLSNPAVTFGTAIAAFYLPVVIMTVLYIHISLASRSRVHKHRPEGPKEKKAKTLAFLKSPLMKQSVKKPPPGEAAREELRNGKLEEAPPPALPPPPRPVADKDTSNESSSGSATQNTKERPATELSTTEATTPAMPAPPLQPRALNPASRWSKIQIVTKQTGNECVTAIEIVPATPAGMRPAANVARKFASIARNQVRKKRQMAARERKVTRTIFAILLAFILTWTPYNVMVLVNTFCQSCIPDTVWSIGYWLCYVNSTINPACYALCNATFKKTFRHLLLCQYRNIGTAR", "assay": "Safetyscreen: Muscarinic M4", "type": "binding", "details": "read-out: % Inh. Muscarinic M4"}, "[12]": {"target": "T6, Platelet Activating Factor (PAF) (Homo sapiens, UniProt P25105)", "T6 construct": "Eurofins Cereps Panlabs (contract panel)", "T6 sequence (P25105 whole entry)": "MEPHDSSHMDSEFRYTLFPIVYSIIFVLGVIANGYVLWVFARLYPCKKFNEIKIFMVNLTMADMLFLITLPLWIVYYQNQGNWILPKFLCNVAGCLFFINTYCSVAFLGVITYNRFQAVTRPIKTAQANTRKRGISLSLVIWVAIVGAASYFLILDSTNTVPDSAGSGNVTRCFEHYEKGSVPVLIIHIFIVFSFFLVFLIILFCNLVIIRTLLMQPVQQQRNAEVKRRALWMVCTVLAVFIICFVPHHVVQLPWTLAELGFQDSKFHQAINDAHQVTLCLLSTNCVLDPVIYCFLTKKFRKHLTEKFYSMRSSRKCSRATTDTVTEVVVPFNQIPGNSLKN", "assay": "Safetyscreen: PAF", "type": "binding", "details": "read-out: % Inh. Platelet Activating Factor (PAF)"}, "[13]": {"details": "intravenous administration, 2 mg/kg"}},
  "note": "Entries after “also recorded” stand apart in the source; their conditions may differ.",
  "data": [
    {"smiles": "CS(=O)(=O)N1CCN(C(=O)c2cnc3ccc(F)cc3c2N2CCC(C#N)(c3ccccc3)CC2)CC1", "note": "[Compound C-86, 1-(6-fluoro-3-(4-(methylsulfonyl)piperazine-1-carbonyl)quinolin-4-yl)-4-phenylpiperidine-4-carbonitrile]", "values": [
      {"measurement": "AUC0-∞", "setting": "[1]; [13]", "value": 1141, "unit": "ng·h/mL"},
      {"measurement": "Cmax", "setting": "[1]; [13]", "value": 2350, "unit": "ng/mL"},
      {"measurement": "Vss", "setting": "[1]; [13]", "value": 0.7, "unit": "L/kg"},
      {"measurement": "AUC0-∞", "setting": "[1]; oral administration, 10 mg/kg", "value": 2518, "unit": "ng·h/mL"},
      {"measurement": "Cmax", "setting": "[1]; oral administration, 10 mg/kg", "value": 1234, "unit": "ng/mL"},
      {"measurement": "F", "setting": "[1]; oral administration, 10 mg/kg", "value": 44, "unit": "%"},
      {"measurement": "bio-distribution in various tissues", "setting": "[2]; delivered i.p.", "value": "good bio-distribution"},
      {"measurement": "AUC(0-inf)", "setting": "[2]; 10 mg/kg, adipose (mesenteric)", "value": 121000, "unit": "ng·h/mL"},
      {"measurement": "Cmax", "setting": "[2]; 10 mg/kg, adipose (mesenteric)", "value": 45200, "unit": "ng/mL"},
      {"measurement": "AUC(0-inf)", "setting": "[2]; 10 mg/kg, brain", "value": 753, "unit": "ng·h/mL"},
      {"measurement": "Cmax", "setting": "[2]; 10 mg/kg, brain", "value": 362, "unit": "ng/mL"},
      {"measurement": "AUC(0-inf)", "setting": "[2]; 10 mg/kg, liver", "value": 32900, "unit": "ng·h/mL"},
      {"measurement": "Cmax", "setting": "[2]; 10 mg/kg, liver", "value": 27600, "unit": "ng/mL"},
      {"measurement": "AUC(0-inf)", "setting": "[2]; 10 mg/kg, pancreas", "value": 35000, "unit": "ng·h/mL"},
      {"measurement": "Cmax", "setting": "[2]; 10 mg/kg, pancreas", "value": 34400, "unit": "ng/mL"},
      {"measurement": "AUC(0-inf)", "setting": "[2]; 10 mg/kg, plasma", "value": 3720, "unit": "ng·h/mL"},
      {"measurement": "Cmax", "setting": "[2]; 10 mg/kg, plasma", "value": 2930, "unit": "ng/mL"},
      {"measurement": "AUC(0-inf)", "setting": "[2]; 30 mg/kg, adipose (mesenteric)", "value": 832000, "unit": "ng·h/mL"},
      {"measurement": "Cmax", "setting": "[2]; 30 mg/kg, adipose (mesenteric)", "value": 140000, "unit": "ng/mL"},
      {"measurement": "AUC(0-inf)", "setting": "[2]; 30 mg/kg, brain", "value": 4520, "unit": "ng·h/mL"},
      {"measurement": "Cmax", "setting": "[2]; 30 mg/kg, brain", "value": 1150, "unit": "ng/mL"},
      {"measurement": "AUC(0-inf)", "setting": "[2]; 30 mg/kg, liver", "value": 174000, "unit": "ng·h/mL"},
      {"measurement": "Cmax", "setting": "[2]; 30 mg/kg, liver", "value": 70500, "unit": "ng/mL"},
      {"measurement": "AUC(0-inf)", "setting": "[2]; 30 mg/kg, pancreas", "value": 276000, "unit": "ng·h/mL"},
      {"measurement": "Cmax", "setting": "[2]; 30 mg/kg, pancreas", "value": 149000, "unit": "ng/mL"},
      {"measurement": "AUC(0-inf)", "setting": "[2]; 30 mg/kg, plasma", "value": 28000, "unit": "ng·h/mL"},
      {"measurement": "Cmax", "setting": "[2]; 30 mg/kg, plasma", "value": 11600, "unit": "ng/mL"},
      {"measurement": "AldeRed fluorescence", "setting": "[3]", "value": "no change in AldeRed fluorescence; also recorded: failed to reduce AldeRed fluorescence"},
      {"measurement": "frequency of host (murine) DCs and macrophages in the TME", "setting": "[4]", "value": "increased frequency of DCs and reduced frequency of macrophages"},
      {"measurement": "DC differentiation from transplanted human monocytes", "setting": "[4]; five days after monocyte injection", "value": "increased DC differentiation"},
      {"measurement": "% Inh. ATPase, Na+/K+, Heart, Pig", "setting": "[5]", "value": 2, "unit": "%"},
      {"measurement": "inhibition at 10 µM", "setting": "[6]", "value": 3, "unit": "%"},
      {"measurement": "inhibition at 10 µM", "setting": "[7]", "value": 4, "unit": "%"},
      {"measurement": "inhibition at 10 µM", "setting": "[8]", "value": 6, "unit": "%"},
      {"measurement": "inhibition at 10 µM", "setting": "[9]", "value": 9, "unit": "%"},
      {"measurement": "% Inh. Glutamate, NMDA, Glycine", "setting": "[10]", "value": 20, "unit": "%"},
      {"measurement": "inhibition at 10 µM", "setting": "[11]", "value": 13, "unit": "%"},
      {"measurement": "inhibition at 10 µM", "setting": "[12]", "value": 32, "unit": "%"}
    ]}
  ]
}
